Test results: patent US10087191B2, “Piperidine derivative and preparation method and pharmaceutical use thereof” (Jiangsu Hengrui Medicine Co., Ltd., priority 2015, dated 2018)
Where two headings read alike, the source gives them in different places.

What was measured:
Type in all cases: cell-based
ERα = ERα (Homo sapiens (Human), UniProt P03372); assay: Degradation effect on ERα in MCF-7 cells (ERα Duoset ELISA); details: read-out: IC50 value of the degradation effect on ERα
Procedure: In order to determine the degradation effect on ER induced by the compounds of the present invention, the following method was used to determine the degradation effect of the compounds of the present invention on ER.
MCF-7 cell line (TChu 74, Cell Bank of Chinese Academy of Sciences typical culture preservation Committee)
ERα Duoset Kit (#DYC5715E, R&D System)
MCF-7 cells were incubated in DMEM/F-12 medium containing 10% FBS.
On the first day of the experiment, MCF-7 cells were resuspended in DMEM/F-12 medium containing 10% FBS treated by activated carbon, then inoculated into a 48-well plate with a density of 50,000 cells/well and incubated for 22-24 hours.
On the second day of the experiment, the test compound was diluted with medium and added to a 48-well plate. The ERα-capture antibody was diluted to 1 μg/ml with PBS, and added to a 96-well plate at 100 μl/well. The plate was sealed and coated overnight at room temperature.
On the third day of the experiment, the coated 96-well plate was washed twice with PBS, added with a sealing solution (1% BSA in PBS) at 110 μl/well and sealed for 1 hour at room temperature. The 48-well plate was washed once with PBS, and the residual liquid was removed. Then, 60 μl of lysis (6 M urea, 1 mM EDTA, 0.5% Triton X-100, 1 mM PMSF, Protease Inhibitor cocktail) was added to each well. After lysis on ice for 15 minutes, the diluent (1 mM EDTA, 0.5% TritonX-100 dissolved in PBS) was added. The cell-diluted lysate was transferred to a 96-well plate at 100 μl/well, then the plate was incubated at room temperature for 2 hours. The diluted primary antibody was added after the plate was washed 4 times with a washing liquid (PBST). After incubation for 1 hour, the 96-well plate was washed 4 times, and the second antibody was added, then the plate was incubated for 30 minutes. After the plate was washed with a washing liquid, TMB chromogenic solution was added and incubated for 15 minutes. The reaction was stopped by the addition of 1 M H2SO4, then the light absorption at 450 nm was read.

MCF7 cells = assay: Inhibition of the proliferation of MCF7 cells (Cell Titer-Glo); details: Homo sapiens, MCF-7 cells, 72 hours, read-out: IC50 value of inhibition effect on the proliferation of MCF7 cells
Procedure: The object of this experiment was to determine the inhibition effect of the compounds on the proliferation activity of MCF7 cells, and the in vitro activity of the compounds was evaluated according to the IC50 value.
After incubation for 24 hours, the medium was removed, then 90 μl of the medium containing 2% FBS and 10 μl of the drug were added to each well, 10 μl of DMSO were added to the control group, and the blank group contained only 100 μl medium containing 2% FBS. The plate was gently shaken and incubated in a incubator at 37° C., 5% CO2. After 72 hours, 50 μl of mixed Cell Titer-Glo (Promega, Cat. No. G7571) were added to each well. The plate was shaken until the ingredients were well mixed, and placed at room temperature for 10 minutes, then the chemiluminescence signal value was determined.
The values of the chemiluminescence signals vs the logarithmic concentrations of the compounds were plotted using Graghpad Prism to obtain IC50 values.

estrogen receptor (ER) = estrogen receptor (ER) (Homo sapiens (Human), UniProt P03372); assay: Inhibition of the binding of estrogen (E) to estrogen receptor (ER), MCF-7/ERE-luciferase reporter cells; details: MCF-7/ERE-luciferase cells, 0.1 nM estradiol, 24 hours; read-out: IC50 value of inhibition effect on the binding of E to ER
Chain of estrogen receptor (ER) (P03372 whole entry): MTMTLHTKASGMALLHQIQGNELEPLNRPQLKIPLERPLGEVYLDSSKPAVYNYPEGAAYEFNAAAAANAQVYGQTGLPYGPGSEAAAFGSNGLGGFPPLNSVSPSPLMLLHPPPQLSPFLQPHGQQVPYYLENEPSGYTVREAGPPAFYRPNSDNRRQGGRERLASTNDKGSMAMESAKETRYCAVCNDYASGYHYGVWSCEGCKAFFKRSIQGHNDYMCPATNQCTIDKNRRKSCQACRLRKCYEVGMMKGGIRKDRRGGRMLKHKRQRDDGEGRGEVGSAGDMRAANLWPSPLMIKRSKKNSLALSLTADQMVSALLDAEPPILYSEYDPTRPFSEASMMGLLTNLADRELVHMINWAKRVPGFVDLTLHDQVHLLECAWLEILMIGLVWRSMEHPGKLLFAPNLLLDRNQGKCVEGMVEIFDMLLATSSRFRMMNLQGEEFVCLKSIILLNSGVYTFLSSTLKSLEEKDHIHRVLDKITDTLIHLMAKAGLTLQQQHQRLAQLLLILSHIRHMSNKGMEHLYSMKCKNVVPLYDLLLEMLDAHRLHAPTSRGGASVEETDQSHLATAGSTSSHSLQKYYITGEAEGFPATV
Procedure: The inhibition effect of the compounds on the binding of E to ER in vitro was tested by the following method.
The object of this experiment was to determine the inhibition effect of the compounds on the binding of E to ER, and the in vitro activity of the compounds was evaluated according to the IC50 value.
MCF-7/ERE-luciferase cells were inoculated into the MEM medium (hyclone, SH30024.01B) containing 10% charcoal stripped FBS (Moregate, FBSF), 1% sodium pyruvate (Sigma, Cat. No. S8636), 1% nonessential amino acids (Sigma, Cat. No. M7145) and 500 μg/ml G418 in a 96-well plate with a density of 30,000 cells/well, and the cells were incubated under the conditions of 37° C. and 5% CO2. […] After incubation for 24 hours, the medium was removed, then 0.1 nM estradiol (Sigma, Cat. No. E2758) and 10 μl of the drug diluted with the medium were added to each well, and the control group was added with DMSO. The plate was gently shaken and incubated in a incubator at 37° C., 5% CO2. After 24 hours, the cell culture medium was discarded.
The inhibition effect of the compounds of the present invention on the binding of E to ER was tested by the experiment described above.

Chain of ERα (P03372 whole entry): as above

| Compound | DC50 (ERα) [nM] | IC50 (MCF7 cells) [nM] | DC50 (ERα; MCF-7 cells) [nM] | IC50 (estrogen receptor (ER)) [nM] |
| --- | --- | --- | --- | --- |
| CC1Cc2cc3c(cc2C(c2c(F)cc(/C=C/C(=O)O)cc2F)N1CC(C)(C)F)OCO3 [Example 1, (E)-3-(3,5-difluoro-4-((5S,7R/5R,7S)-6-(2-fluoro-2-methylpropyl)-7-methyl-5,6,7,8-tetrahydro-[1,3]dioxolo[4,5-g]isoquinolin-5-yl)phenyl)acrylic acid] | 0.11 | 0.12 |  |  |
| CC1Cc2c(oc3ccccc23)C(c2c(F)cc(/C=C/C(=O)O)cc2F)N1CC(C)(C)F [Example 4, (E)-3-(3,5-difluoro-4-((1R,3R/1S,3S)-2-(2-fluoro-2-methylpropyl)-3-methyl-1,2,3,4-tetrahydrobenzofuro[2,3-c]pyridin-1-yl)phenyl)acrylic acid] |  | 0.19 | 0.56 |  |
| CC1Cc2c(sc3ccccc23)C(c2c(F)cc(/C=C/C(=O)O)cc2F)N1CC(C)(C)F [Example 5, (E)-3-(3,5-difluoro-4-((1R,3R/1S,3S)-2-(2-fluoro-2-methylpropyl)-3-methyl-1,2,3,4-tetrahydrobenzo[4,5]thieno[2,3-c]pyridin-1-yl)phenyl)acrylic acid] |  | 1.2 | 3.94 |  |
| CC1Cc2sc3ccccc3c2C(c2c(F)cc(/C=C/C(=O)O)cc2F)N1CC(C)(C)F [Example 6, (E)-3-(3,5-difluoro-4-((1R,3R/1S,3S)-2-(2-fluoro-2-methylpropyl)-3-methyl-1,2,3,4-tetrahydrobenzo[4,5]thieno[3,2-c]pyridin-1-yl)phenyl)acrylic acid] |  | 1.91 | 1.92 |  |
| CC1Cc2cc(-c3cnn(C(F)F)c3)ccc2C(c2c(F)cc(/C=C/C(=O)O)cc2F)N1CC(C)(C)F (centres unmarked) [Example 13] |  | 0.46 | 6.93 |  |
| CC1Cc2cc(-c3cnn(C)c3)c(F)cc2C(c2c(F)cc(/C=C/C(=O)O)cc2F)N1CC(C)(C)F [Example 16, (E)-3-(3,5-difluoro-4-((1S,3R/1R,3S)-7-fluoro-2-(2-fluoro-2-methylpropyl)-3-methyl-6-(1-methyl-1H-pyrazol-4-yl)-1,2,3,4-tetrahydroisoquinolin-1-yl)phenyl)acrylic acid] |  | 0.47 | 3.11 |  |
| CCn1cc(-c2cc3c(cc2F)C(c2c(F)cc(/C=C/C(=O)O)cc2F)N(CC(C)(C)F)C(C)C3)cn1 [Example 17, (E)-3-(4-((1S,3R/1R,3S)-6-(1-ethyl-1H-pyrazol-4-yl)-7-fluoro-2-(2-fluoro-2-methylpropyl)-3-methyl-1,2,3,4-tetrahydroisoquinolin-1-yl)-3,5-difluorophenyl)acrylic acid] |  | 0.34 | 1.43 |  |
| CCCn1cc(-c2ccc3c(c2)CC(C)N(CC(C)(C)F)C3c2c(F)cc(/C=C/C(=O)O)cc2F)cn1 [Example 18, (E)-3-(3,5-difluoro-4-((1S,3R/1R,3S)-2-(2-fluoro-2-methylpropyl)-3-methyl-6-(1-propyl-1H-pyrazol-4-yl)-1,2,3,4-tetrahydroisoquinolin-1-yl)phenyl)acrylic acid] |  | 1.03 | 4.2 |  |
| Cc1ncc(-c2ccc3c(c2)CC(C)N(CC(C)(C)F)C3c2c(F)cc(/C=C/C(=O)O)cc2F)o1 [Example 49, (E)-3-(3,5-difluoro-4-((1S,3R/1R,3S)-2-(2-fluoro-2-methylpropyl)-3-methyl-6-(2-methyloxazol-5-yl)-1,2,3,4-tetrahydroisoquinolin-1-yl)phenyl)acrylic acid] |  | 1.63 | 6.29 |  |
| Cc1nc2ccc(-c3ccc4c(c3)CC(C)N(CC(C)(C)F)C4c3c(F)cc(/C=C/C(=O)O)cc3F)cc2s1 [Example 66, (E)-3-(3,5-difluoro-4-((1S,3R/1R,3S)-2-(2-fluoro-2-methylpropyl)-3-methyl-6-(2-methylbenzo[d]thiazol-6-yl)-1,2,3,4-tetrahydroisoquinolin-1-yl)phenyl)acrylic acid] |  | 1.62 |  | 3.25 |
| C[C@H]1Cc2c(oc3ccccc23)[C@H](c2c(F)cc(/C=C/C(=O)O)cc2F)N1CC(C)(C)F [Example 69, (E)-3-(3,5-difluoro-4-((1S,3S)-2-(2-fluoro-2-methylpropyl)-3-methyl-1,2,3,4-tetrahydrobenzofuro[2,3-c]pyridin-1-yl)phenyl)acrylic acid] |  | 6.41 |  | 34 |
| CC1Cc2c(ccc3[nH]ncc23)C(c2c(F)cc(/C=C/C(=O)O)cc2F)N1CC(C)(C)F [Example 70, (E)-3-(3,5-difluoro-4-((6S,8R/6R,8S)-7-(2-fluoro-2-methylpropyl)-8-methyl-6,7,8,9-tetrahydro-3H-pyrazolo[4,3-f]isoquinolin-6-yl)phenyl)acrylic acid] |  | 0.14 | 0.77 |  |
| CC1Cc2c(ccc3c2OCO3)C(c2c(F)cc(/C=C/C(=O)O)cc2F)N1CC(C)(C)F [Example 82, (E)-3-(3,5-difluoro-4-((6S,8R/6R,8S)-7-(2-fluoro-2-methylpropyl)-8-methyl-6,7,8,9-tetrahydro-[1,3]dioxolo[4,5-f]isoquinolin-6-yl)phenyl)acrylic acid] |  | 4.43 |  | 13.6 |
| CC1Cc2cc3c(cc2C(c2ccc(/C=C/C(=O)O)cc2)N1CC(C)(C)F)OCO3 (centres unmarked) [Example 83, (E)-3-(4-(6-(2-fluoro-2-methylpropyl)-7-methyl-5,6,7,8-tetrahydro-[1,3]dioxolo[4,5-g]isoquinolin-5-yl)phenyl)acrylic acid] |  | 17.5 |  | 20.5 |
| CC1Cc2c(oc3cc(Cl)ccc23)C(c2c(F)cc(/C=C/C(=O)O)cc2F)N1CC(C)(C)F [Example 85, (E)-3-(4-((1R,3R/1S,3S)-7-chloro-2-(2-fluoro-2-methylpropyl)-3-methyl-1,2,3,4-tetrahydrobenzofuro[2,3-c]pyridin-1-yl)-3,5-difluorophenyl)acrylic acid] |  | 7.3 |  | 21.9 |
| C[C@@H]1Cc2cc(-c3ccc4cnccc4c3)ccc2[C@@H](c2c(F)cc(/C=C/C(=O)O)cc2F)N1CC(C)(C)F [Example 98, (E)-3-(3,5-difluoro-4-((1S,3R)-2-(2-fluoro-2-methylpropyl)-3-methyl-1,2,3,4-tetrahydro-[6,6′-biisoquinolin]-1-yl)phenyl)acrylic acid] |  | 1.83 |  | 0.85 |
| CC1Cc2c(ccc3[nH]ncc23)C(c2ccc(/C=C/C(=O)O)cc2)N1CC(C)(C)F [Example 101, (E)-3-(4-((6S,8R/6R,8S)-7-(2-fluoro-2-methylpropyl)-8-methyl-6,7,8,9-tetrahydro-3H-pyrazolo[4,3-f]isoquinolin-6-yl)phenyl)acrylic acid] |  | 2.07 |  | 3.14 |
| CC(C)CN1C(C)Cc2c(ccc3[nH]ncc23)C1c1ccc(/C=C/C(=O)O)cc1 [Example 102, (E)-3-(4-((6R,8R/6S,8S)-7-isobutyl-8-methyl-6,7,8,9-tetrahydro-3H-pyrazolo[4,3-f]isoquinolin-6-yl)phenyl)acrylic acid] |  | 4.99 |  | 0.64 |
| CC1Cc2c(ccc3[nH]ncc23)C(c2c(F)cc(/C=C/C(=O)O)cc2F)N1C1CCCC1 [Example 103, (E)-3-(4-((6S,8R/6R,8S)-7-cyclopentyl-8-methyl-6,7,8,9-tetrahydro-3H-pyrazolo[4,3-f]isoquinolin-6-yl)-3,5-difluorophenyl)acrylic acid] |  | 2.95 |  | 1.32 |
